The series is described as follows: Human HepG2 cell viability assay in 384 well format. It is filed as toxicity, cell-based. Also noted: dose 125 nL, time 70.5 hour; cytotoxicity at 70.5 h: concentration not given beside the values. The following applies: HepG2 cells, read-out: Inhibition.

Regarding `CCCNc1nc(CS(=O)(=O)c2ccccc2)cs1`, the cytotoxicity at 70.5 h is -7.26%.

Regarding `COC(=O)C(NC(=O)c1ccc(N(C)C)nc1)c1ccccc1` (stereo not drawn), the cytotoxicity at 70.5 h was -8.4%.

Turning to `C=C(C)CNc1nc(CS(=O)(=O)c2ccccc2)cs1`, the cytotoxicity at 70.5 h is -2.16%.

For `Cc1c(C(=O)N2CCC2(C)C)nnn1-c1cccc2cccnc12`, the cytotoxicity at 70.5 h was -3.77%.

Regarding `O=C(Cc1cccc(F)c1F)NS(=O)(=O)c1ccc(Cl)cc1F`, the cytotoxicity at 70.5 h worked out at 12.1%.

As for `Cc1c(C(=O)N2CCC2(C)C)nnn1-c1cccc2cnccc12`, the cytotoxicity at 70.5 h is -12.7%.

`Cc1c(C(=O)N2CC(=O)N(C)C2)nnn1-c1cccc2cccnc12`: the cytotoxicity at 70.5 h was -3.09%.

Consider `CCc1ccc(C(NCC(N)=O)C(C)(C)C)o1` (stereo not drawn), for which the cytotoxicity at 70.5 h is -6.31%.

Take `Cc1ccc(F)c(N2CCCC(NS(=O)(=O)CCCF)C2=O)c1` (stereo not drawn): the cytotoxicity at 70.5 h is -11.4%.

Consider `CCOCCCNc1nc(CS(=O)(=O)c2ccccc2)cs1`, for which the cytotoxicity at 70.5 h was -6.56%.

In the case of `Cc1csc(CN(C)S(=O)(=O)c2ccc(C)c(N(C)C)c2)n1`, the cytotoxicity at 70.5 h is -11.1%.

As to `Cc1cc(CC(=O)N(C)Cc2cccc(OC(C)C)c2)n[nH]1`, the cytotoxicity at 70.5 h is -9.38%.

Turning to `COCCOCC(=O)NC1CCN(c2ccccn2)CC1`, the cytotoxicity at 70.5 h came to 16.4%.

With `NC(=O)CNC(c1ccccc1)c1ccc(OC(F)F)cc1` (stereo not drawn), the cytotoxicity at 70.5 h is 11.2%.

With `O=C(COCCOc1ccccc1)NC1CCN(c2ncccn2)CC1`, the cytotoxicity at 70.5 h turned out to be 41.6%.

With `O=C(COCCOc1ccccc1)NC1CCN(C(=O)C2CC2)CC1`, the cytotoxicity at 70.5 h was 14.4%.

Turning to `Cc1cc(C)c(S(N)(=O)=O)cc1C(=O)NCCN1CCC(C)CC1`, the cytotoxicity at 70.5 h is -12.9%.

Regarding `NC(=O)CN1CCC(NC(=O)COCCOc2ccccc2)CC1`, the cytotoxicity at 70.5 h is -4.83%.

For `N#CC1(C(=O)N2CCOC(c3ccc(F)cc3)C2)CCCC1` (stereo not drawn), the cytotoxicity at 70.5 h was -15.9%.

In the case of `CCc1nnc2n1CCN(C(C(N)=O)c1ccc(F)cc1)C2` (stereo not drawn), the cytotoxicity at 70.5 h was 26.6%.

For the compound `CS(=O)(=O)NC1CC(=O)N(c2ccccc2Cl)C1` (stereo not drawn), the cytotoxicity at 70.5 h was -27%.

In the case of `Cc1cc(Br)ccc1C(=O)NCCN1CCCCCC1`, the cytotoxicity at 70.5 h was -10.6%.

As for `CC(C)(C)CNC(=O)c1ccc(C(=O)O)nc1`, the cytotoxicity at 70.5 h was -9.27%.

As for `COc1cccc(S(=O)(=O)NC(=O)C2CC(c3ccccc3)=NO2)c1` (stereo not drawn), the cytotoxicity at 70.5 h is -9.7%.

`CCC(c1ccc(F)cc1)N1CCn2c(CO)nnc2C1` (stereo not drawn): the cytotoxicity at 70.5 h was -8.02%.

On to `NC(=O)CSCC(=O)NC1(c2cccc(Br)c2)CC1`, for which the cytotoxicity at 70.5 h is 32.5%.

Turning to `CCc1nc(C2CCCN2C(=O)c2cnc3n[nH]c(C)c3c2)no1` (stereo not drawn), the cytotoxicity at 70.5 h is -12.5%.

`CCCOc1ccc(CCC(=O)Nc2nonc2C)cc1`: the cytotoxicity at 70.5 h is -4.36%.

As to `O=C(O)CCc1ccc(S(=O)(=O)Nc2cnn(CC3CC3)c2)cc1`, the cytotoxicity at 70.5 h turned out to be 27.6%.

`Cn1nc(C(=O)NC2(c3ccccc3)CCC2)ccc1=O`: the cytotoxicity at 70.5 h was determined as 1.95%.

`Cc1ccc(C)c(OCC(=O)NC2CCN(c3ccccn3)CC2)c1`: the cytotoxicity at 70.5 h is -11.1%.

As to `CC1Oc2c(cccc2C(=O)N2CCCCCC2)NC1=O` (stereo not drawn), the cytotoxicity at 70.5 h stood at 29.3%.

As for `COc1cccc(Cn2[nH]c(C)c3c(NC(=O)C(C)OC)nnc2-3)c1` (stereo not drawn), the cytotoxicity at 70.5 h was -6.21%.

For `CN(C)CCN(C)C(=O)NC1CCC(Oc2ccccc2C#N)CC1` (stereo not drawn), the cytotoxicity at 70.5 h was -4.89%.

In the case of `Cc1nnc(NCCc2coc(-c3ccccc3)n2)c(C#N)c1C`, the cytotoxicity at 70.5 h is -2.75%.

Take `COc1ccc(-c2nc(CCNc3nnc(C)c(C)c3C#N)co2)cc1`: the cytotoxicity at 70.5 h is 13.7%.

`O=C1CC(C(=O)Nc2nnc(-c3ccccn3)[nH]2)c2ccccc2N1` (stereo not drawn): the cytotoxicity at 70.5 h was found to be 6.91%.

Take `CC(C)c1noc(C[S+]([O-])CC(=O)Nc2ccc(F)c(F)c2)n1` (stereo not drawn): the cytotoxicity at 70.5 h came to 10.4%.

As for `Cc1csc(-c2cccc(NC(=O)N3CCOCC3)c2)n1`, the cytotoxicity at 70.5 h was -3.32%.

With `CC(C)C(C)(CNC(=O)OC(C)(C)C)NC(=O)c1cnccn1` (stereo not drawn), the cytotoxicity at 70.5 h was found to be 2.42%.

For `CN1CCOC(CNCc2nc(-c3cccnc3)no2)C1` (stereo not drawn), the cytotoxicity at 70.5 h was -6.13%.

With `CC(C)c1nc(S(=O)(=O)Nc2ccnn2C2CCCC2)c[nH]1`, the cytotoxicity at 70.5 h turned out to be 1.34%.

Turning to `O=C(Nc1ccc(-c2ccccc2)cn1)C1CCCN1C(=O)C1CC1` (stereo not drawn), the cytotoxicity at 70.5 h stood at 5.65%.

For the compound `CN1CCOC(CNCc2nc(-c3ccco3)no2)C1` (stereo not drawn), the cytotoxicity at 70.5 h is 2.27%.

Take `Cc1cc(Cn2cncc(Br)c2=O)on1`: the cytotoxicity at 70.5 h was found to be 5.25%.

Consider `O=C(NCC(O)c1ccsc1)c1sccc1OC(F)F` (stereo not drawn), for which the cytotoxicity at 70.5 h was -13.8%.

Regarding `CCOCCN1CCN(CC2(O)CCCCC2)CC1`, the cytotoxicity at 70.5 h is -4.54%.

Take `CCn1nc2c(cc1=O)CN(CCCOc1ccc(C#N)cc1)CC2`: the cytotoxicity at 70.5 h was found to be 10.4%.

Regarding `Cc1ccc(C(=O)NCC(O)CN2CCCC2=O)c(C)c1` (stereo not drawn), the cytotoxicity at 70.5 h was -1.64%.

Consider `Cc1cc(C)n(CC2CCN(CC(O)CN3CCOCC3)CC2)n1` (stereo not drawn), for which the cytotoxicity at 70.5 h was -2.43%.

Regarding `CCS(=O)(=O)N1Cc2ccccc2CC1C(=O)OCc1c(C)noc1C` (stereo not drawn), the cytotoxicity at 70.5 h was -7.84%.

In the case of `O=C1CN(C(=O)c2cc3c(F)cc(Br)cc3[nH]2)CCN1`, the cytotoxicity at 70.5 h was -4.59%.

In the case of `COc1cccc(CCC(=O)Nc2c(C)nn(C)c2C)c1OC`, the cytotoxicity at 70.5 h was -10.8%.

Take `CC1(C)COCCN1C(=O)Cc1cc(Cl)c2c(c1)OCCO2`: the cytotoxicity at 70.5 h was found to be 0.881%.

As to `Cc1nc(CNCC2CNc3ccnn3C2)cs1` (stereo not drawn), the cytotoxicity at 70.5 h is -7.55%.

For `COc1ccc2cc(C(=O)NCCNc3ccc(C)nn3)[nH]c2c1`, the cytotoxicity at 70.5 h is -5.63%.

Turning to `Cc1noc(C)c1CNCC1CNc2ccnn2C1` (stereo not drawn), the cytotoxicity at 70.5 h is -7.43%.

In the case of `CCc1nnc2n1CCN(C(=O)C(C)Oc1cccc(C#N)c1)C2` (stereo not drawn), the cytotoxicity at 70.5 h was 12.9%.

For `Cc1cccc(-c2noc(Cn3nc(C(N)=O)ccc3=O)n2)c1`, the cytotoxicity at 70.5 h is -4.08%.

In the case of `CCc1ccc(-c2noc(Cn3nc(C(N)=O)ccc3=O)n2)cc1`, the cytotoxicity at 70.5 h is -6.4%.

As to `Cc1nn(C)c(C)c1C1CCCN1CC(=O)N(C)c1nccs1` (stereo not drawn), the cytotoxicity at 70.5 h was -3.66%.

Consider `CN(CCOc1ccc(C#N)cc1)CC1CCS(=O)(=O)C1` (stereo not drawn), for which the cytotoxicity at 70.5 h was -9.8%.

With `CC(=O)NCCCNC(=O)N1CCN(c2cc(F)ccc2F)CC1`, the cytotoxicity at 70.5 h was -6.3%.

As for `Cc1cc(C2CCCN(Cc3nnc(Cc4ccccc4)o3)C2)n[nH]1` (stereo not drawn), the cytotoxicity at 70.5 h is -9.79%.

Regarding `C[S+]([O-])CCNC(=O)N1CCN(c2cc(F)ccc2F)CC1` (stereo not drawn), the cytotoxicity at 70.5 h is 13%.

In the case of `Cc1cc(COC(=O)[C@@H]2Cc3ccccc3CN2S(C)(=O)=O)no1`, the cytotoxicity at 70.5 h came out at 1.54%.

As to `Cc1ccc(CNc2cc3c(cc2Cl)NC(=O)CO3)cc1C`, the cytotoxicity at 70.5 h was -5.39%.

In the case of `Cc1ccc(CNCc2nccn2C)c(OC(C)(C)C)c1`, the cytotoxicity at 70.5 h was -7.39%.

Turning to `Cc1ccc(CNCc2nccn2C)c(OCC2CC2)c1`, the cytotoxicity at 70.5 h is 7.03%.

Regarding `CC1COCCN1C(=O)Cc1cc(Cl)c2c(c1)OCCCO2` (stereo not drawn), the cytotoxicity at 70.5 h is -14.3%.

Regarding `CCSc1cccc(NCc2cccnc2)c1`, the cytotoxicity at 70.5 h was -16.6%.

In the case of `COc1c(C2CCCN2CC(=O)N(C)Cc2ccco2)c(C)nn1C` (stereo not drawn), the cytotoxicity at 70.5 h is -5.02%.

Turning to `COc1ccccc1C(=O)NCCC(=O)Nc1c(C)nn(C)c1C`, the cytotoxicity at 70.5 h was -12.6%.

Values taken from ChEMBL document CHEMBL3507680, “University of Dundee, Gates Library screen for HepG2 cell viability”.
